Results on 9 molecules are retold here after patent publication US20260234161A1, “RIFABUTIN ANALOGS FOR THE TREATMENT OF BACTERIAL DISEASES” (BIOVERSYS AG, priority 2023, published 2026).

In brackets after ≈: the same amount, converted by molar mass. Bounds are passed on as bounds.

Holding throughout (assay type): cell-based
The subject of assay [1] is S. aureus (UAMS-1625 strain). In words: MIC by broth microdilution, S. aureus. The following applies: Staphylococcus aureus, 20 h, read-out: MIC S. aureus. In a few lines:
(§1)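 CLSI broth microdilution in cation-adjusted Mueller Hinton broth, 5×10^5 CFU/mL inoculum; ADC (5%) added for M. avium and M. xenopi (M. xenopi inoculum from 7H9+ADC liquid culture). Two-fold series 16–0.016 μg/mL (M. abscessus, M. avium), 1–6×10^−5 μg/mL (M. xenopi); S. aureus 35° C 20 h, M. abscessus 30° C 4 days, others 37° C ≥7 days; MIC = lowest concentration without visible growth.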
In general terms: In broth dilution the organism is exposed to a series of concentrations in liquid medium.

In assay [2] the test system is A. baumannii (HUMC1 strain). Briefly: MIC by broth microdilution, A. baumannii (RPMI + 10% FCS). The settings on record: Acinetobacter baumannii; HUMC1 strain; RPMI medium + 10% FCS; 35° C., 20 hours; read-out: MIC A. baumannii.
Assay [3] concerns M. abscessus (ATCC 19977). In words: MIC by broth microdilution, M. abscessus in Middlebrook 7H9 broth + ADC. The following applies: Mycobacteroides abscessus, ATCC19977, 96 h; ATCC 19977; Middlebrook 7H9 broth + ADC growth supplement (10%); 30° C., 4 days; read-out: MIC M. abscessus 7H9. The procedure: (§2) MIC values were determined by broth microdilution method according to the CLSI guidelines with the following exceptions: MIC against A. baumannii was performed in RPMI medium supplemented with 10% FCS and MIC against M. abscessus was performed in Middlebrook 7H9 broth supplemented with Middlebrook ADC growth supplement (10%; see column “M. abscessus 7H9”). MIC forM abscessus was determined a second time in standard cation adjusted Mueller Hinton broth without growth supplement (see colum “M. abscessus MH”). All other MIC were performed in standard cation adjusted Mueller Hinton broth, supplemented with Middlebrook ADC growth supplement (5%) for the slow growing mycobacteria (M. xenopi, M. kansasii and M. avium).
(§3) The following procedure applies to all species tested, except forM xenopi. From a fresh culture plate (from overnight to several days depending on the bacteria), cells were resuspended in 0.9% (w/v) saline solution and bacterial inoculum was prepared in the respective testing medium with 5×10^5 CFU/mL. For M. xenopi, the inoculum was prepared from a fresh liquid culture (7H9+ADC). The appropriate volumes of a 10 mg/mL compound solution were directly dispensed in the 96-well assay plate using a digital dispenser to create two-fold dilution series from 32 to 0.002 μg/mL final concentration for A. baumannii and S. aureus; from 16 to 0.016 μg/mL for M. abscessus and M. avium; and from 1 to 6×10^−5 μg/mL for M. kansasii and M. xenopi. 100 μL of bacterial suspension was finally added to the compounds. Plates were covered and incubated without shaking at 35° C. for 20 hours for A. baumanii and S. aureus; at 30° C. for 4 days for M. abscessus; and at 37° C. for 7 days (at least) for M. kansasii (covered with aluminum foil to avoid light exposure), M. avium and M. xenopi. Every experiment contained an antibiotic as quality control. MIC was determined visually as the lowest concentration of a compound that prevents visible growth of the bacteria.
(§4) The in vitro activity of compounds described herein was determined against S. aureus (UAMS-1625 strain), A. baumannii (HUMC1 strain), M. abscessus (ATCC 19977), M. kansasii (ATCC 12478), M. avium (ATCC 25291), and M. xenopi (ATCC 19250).

In assay [4] the test system is M. abscessus (ATCC 19977). In words: MIC by broth microdilution, M. abscessus in cation adjusted Mueller Hinton broth. The following applies: Mycobacteroides abscessus, ATCC19977, 96 h; ATCC 19977; cation adjusted Mueller Hinton broth without growth supplement; 30° C., 4 days; read-out: MIC M. abscessus MH. In a few lines:
as §1

The subject of assay [5] is M. kansasii (ATCC 12478). In words: MIC by broth microdilution, M. kansasii. The following applies: Mycobacterium kansasii, ATCC12478, 168 h, cation adjusted Mueller Hinton broth + ADC (5%), 37° C., 7 days (at least). The method, then:
as §2, §3, §4

The test system of assay [6] is M. xenopi (ATCC 19250). Briefly: MIC by broth microdilution, M. xenopi. The settings on record: Mycobacterium xenopi, ATCC19250, 168 h, cation adjusted Mueller Hinton broth + ADC (5%), 37° C., 7 days (at least). The procedure:
as §2, §3, §4

For assay [7], the system named is M. avium (ATCC 25291). Briefly: MIC by broth microdilution, M. avium. The following applies: Mycobacterium avium, ATCC25291, 168 h, cation adjusted Mueller Hinton broth + ADC (5%), 37° C., 7 days (at least). The method, then:
as §2, §3, §4

By MIC is commonly meant the lowest concentration that inhibits growth of the organism. Turning to `CO[C@H]1/C=C/O[C@@]2(C)Oc3c(C)c(O)c4c(c3C2=O)C2=NC3(CCN(CC(C)C)CC3)NC2=C(NC(=O)/C(C)=C\C=C\[C@H](C)[C@H](O)[C@@H](C)[C@@H](O)[C@@H](C)[C@H](OC(=O)N2CCC(c3ccccc3)CC2)[C@@H]1C)C4=O` [Compound 1], the MIC turned out to be 0.5 µg/mL (≈ 0.504 µM) in assay [1]; 0.25 µg/mL in assay [2]; 0.125 µg/mL in assay [3]; 0.5 µg/mL (≈ 0.504 µM) in assay [4]; 0.004 µg/mL in assay [5]; 0.03 µg/mL in assay [6]. Also, in assay [7], the MIC was found to be 0.125 µg/mL.

Take `CO[C@H]1/C=C/O[C@@]2(C)Oc3c(C)c(O)c4c(c3C2=O)C2=NC3(CCN(CC(C)C)CC3)NC2=C(NC(=O)/C(C)=C\C=C\[C@H](C)[C@H](O)[C@@H](C)[C@@H](O)[C@@H](C)[C@H](OC(=O)N2CCC(c3ccncc3)CC2)[C@@H]1C)C4=O` [Compound 2]: the MIC in assay [1] turned out to be 0.125 µg/mL (≈ 0.126 µM); in assay [2], 0.016 µg/mL; in assay [3] it was 0.125 µg/mL; in assay [4], 0.25 µg/mL (≈ 0.252 µM); in assay [5] it was 0.0005 µg/mL; in assay [6], 0.002 µg/mL. In addition, the minimum inhibitory concentration (MIC) in assay [7] turned out to be 0.06 µg/mL.

Take `CO[C@H]1/C=C/O[C@@]2(C)Oc3c(C)c(O)c4c(c3C2=O)C2=NC3(CCN(CC(C)C)CC3)NC2=C(NC(=O)/C(C)=C\C=C\[C@H](C)[C@H](O)[C@@H](C)[C@@H](O)[C@@H](C)[C@H](OC(=O)N2CCC(N(C)c3ccccc3)CC2)[C@@H]1C)C4=O` [Compound 4]: the MIC was 0.5 µg/mL (≈ 0.49 µM) in assay [1]; 0.125 µg/mL in assay [2]; 0.25 µg/mL in assay [3]; 1 µg/mL (≈ 0.979 µM) in assay [4]; 0.002 µg/mL in assay [5]; 0.016 µg/mL in assay [6]. In addition, the MIC in assay [7] stood at 0.25 µg/mL.

For `CO[C@H]1/C=C/O[C@@]2(C)Oc3c(C)c(O)c4c(c3C2=O)C2=NC3(CCN(CC(C)C)CC3)NC2=C(NC(=O)/C(C)=C\C=C\[C@H](C)[C@H](O)[C@@H](C)[C@@H](O)[C@@H](C)[C@H](OC(=O)N2CCN(c3ccccc3)CC2)[C@@H]1C)C4=O` [Compound 7], the MIC in assay [1] came to 0.5 µg/mL (≈ 0.503 µM); in assay [2] it was 0.125 µg/mL; in assay [3], 0.125 µg/mL; in assay [4] it was 0.5 µg/mL (≈ 0.503 µM); in assay [5], 0.001 µg/mL; in assay [6], 0.008 µg/mL. For the same molecule, the MIC in assay [7] came to 0.25 µg/mL.

Turning to `CO[C@H]1/C=C/O[C@@]2(C)Oc3c(C)c(O)c4c(c3C2=O)C2=NC3(CCN(CC(C)C)CC3)NC2=C(NC(=O)/C(C)=C\C=C\[C@H](C)[C@H](O)[C@@H](C)[C@@H](O)[C@@H](C)[C@H](OC(=O)N2CCN(c3ccccn3)CC2)[C@@H]1C)C4=O` [Compound 8], the MIC stood at 0.25 µg/mL (≈ 0.251 µM) in assay [1]; 0.25 µg/mL in assay [2]; 0.125 µg/mL in assay [3]; 0.5 µg/mL (≈ 0.503 µM) in assay [4]; 0.0005 µg/mL in assay [5]; 0.008 µg/mL in assay [6]. Also, in assay [7], the MIC was found to be 0.25 µg/mL.

In the case of `CO[C@H]1/C=C/O[C@@]2(C)Oc3c(C)c(O)c4c(c3C2=O)C2=NC3(CCN(CC(C)C)CC3)NC2=C(NC(=O)/C(C)=C\C=C\[C@H](C)[C@H](O)[C@@H](C)[C@@H](O)[C@@H](C)[C@H](OC(=O)N2CCN(CC3CCCCC3)CC2)[C@@H]1C)C4=O` [Compound 9], the MIC was 0.5 µg/mL (≈ 0.493 µM) in assay [1]; 0.5 µg/mL in assay [2]; 0.06 µg/mL in assay [3]; 0.125 µg/mL (≈ 0.123 µM) in assay [4]; 0.0002 µg/mL in assay [5]; 0.016 µg/mL in assay [6]. Further, the MIC in assay [7] was 0.125 µg/mL.

Take `CO[C@H]1/C=C/O[C@@]2(C)Oc3c(C)c(O)c4c(c3C2=O)C2=NC3(CCN(CC(C)C)CC3)NC2=C(NC(=O)/C(C)=C\C=C\[C@H](C)[C@H](O)[C@@H](C)[C@@H](O)[C@@H](C)[C@H](OC(=O)N2CCN(C3CCCCC3)CC2)[C@@H]1C)C4=O` [Compound 10]: the MIC in assay [1] is 0.25 µg/mL (≈ 0.25 µM); in assay [2], 0.06 µg/mL; in assay [3] it was 0.06 µg/mL; in assay [4], 0.06 µg/mL (≈ 0.06 µM); in assay [5], 0.0002 µg/mL; in assay [6] it was 0.002 µg/mL. Besides, the MIC in assay [7] amounted to 0.06 µg/mL.

With `CO[C@H]1/C=C/O[C@@]2(C)Oc3c(C)c(O)c4c(c3C2=O)C2=NC3(CCN(CC(C)C)CC3)NC2=C(NC(=O)/C(C)=C\C=C\[C@H](C)[C@H](O)[C@@H](C)[C@@H](O)[C@@H](C)[C@H](OC(=O)NC2CCN(Cc3ccccc3)CC2)[C@@H]1C)C4=O` [Compound 14], the MIC in assay [1] was determined as 0.125 µg/mL (≈ 0.122 µM); in assay [2], 0.004 µg/mL; in assay [3] it was 0.25 µg/mL; in assay [4], 0.25 µg/mL (≈ 0.245 µM); in assay [5], 0.0005 µg/mL; in assay [6], 0.008 µg/mL. Further, in assay [7], the MIC is 0.25 µg/mL.

As to `CO[C@H]1/C=C/O[C@@]2(C)Oc3c(C)c(O)c4c(c3C2=O)C2=NC3(CCN(CC(C)C)CC3)NC2=C(NC(=O)/C(C)=C\C=C\[C@H](C)[C@H](O)[C@@H](C)[C@@H](O)[C@@H](C)[C@H](OC(=O)NC2CCN(C3CCCCC3)CC2)[C@@H]1C)C4=O` [Compound 77], the MIC in assay [1] was 0.06 µg/mL (≈ 0.0592 µM); in assay [2], no more than 0.016 µg/mL; in assay [4] it was 1 µg/mL (≈ 0.987 µM); in assay [5], 0.03 µg/mL; in assay [6] it was 0.06 µg/mL; in assay [7], 0.25 µg/mL.
